From patent US20100212049A1, “Compositions and Methods of Use of Response Regulators” (Pioneer Hi-Bred International, Inc., priority 2005, published 2010)

How the values were obtained:
Ckx1 transcripts [1] = experiment: Time-course of Ckx1 transcript induction by BA in maize leaf discs (Northern blot); type: cell-based, maize (inbred B73); conditions: 10 μM BA, after 6 hours, 25° C.
Procedure: (§1) Two experiments were performed: one was an initial experiment to determine the time course for BA induction of Ckx1 transcripts in leaf discs, while the second experiment used the time-course information to optimize tissue harvest for the actual Lynx study. For the time-course experiment, leaf discs (5 mm in diameter) were collected from fully expanded leaves of 8-week old maize plants (inbred B73) and were incubated in petri dishes containing water or water plus 10 μM BA for different time periods at 25° C. For the Lynx experiment ˜300 leaf-discs were punched from ear leaves collected from 5 different maize B73 plants at flowering. Half of the discs were floated in a large petri dish on a solution containing 10 μM BA; the other half were floated on distilled water. Discs were incubated for 6 h at 25° C. in the light, blotted-dried, frozen in liquid nitrogen, and then submitted for Lynx analysis.
Time-course experiment: This perfunctory experiment was designed to learn the kinetics of Ckx1 transcript accumulation in response to BA. Ckx1 transcript levels were induced […] after 6 hours (FIG. 1).

Ckx1 transcripts [2] = experiment: Lynx expression experiment, leaf discs floated on BA vs water: Ckx1; type: cell-based, maize B73; conditions: 10 μM BA, 6 h
Procedure: (§2) A Lynx experiment was performed to identify genes in the cytokinin signaling and metabolism pathway, as well as the carbohydrate pathway, whose expression is modulated in response to elevated cytokinin levels. One goal of this experiment was to identify response regulators that could be involved in the cytokinin-signaling pathway and could potentially act as Ckx1 transcriptional regulators.
as §1, with “Half of the discs were floated in a large petri dish on a solution containing 10 μM BA; the other half were floated on distilled water. Discs were incubated for 6 h at 25° C. in the light, blotted-dried, frozen in liquid nitrogen, and then submitted for Lynx analysis.” left out
(§3) Nevertheless, differences in levels of expression of multiple genes were detected and these are presented as genes relevant to cytokinin response, isoprenoid (or terpenoid) biosynthesis, and cell division (Table 2).
A ˜30-fold increase in Ckx1 transcripts was measured after 6 h of BA application (Table 2). […]

[3] = test system: Zm Response regulator 5 (ZmRR5); experiment: Lynx expression experiment, leaf discs floated on BA vs water: ZmRR5; type: cell-based, maize B73; conditions: 6 h
Procedure: as §2, §1, §3
(§4) A ˜30-fold increase in Ckx1 transcripts was measured after 6 h of BA application (Table 2). […] We also identified two new response regulators whose expression is induced by BA, ZmRRS and ZmRR6 (Table 2).

[4] = test system: Zm response regulator 6 (ZmRR6); experiment: Lynx expression experiment, leaf discs floated on BA vs water: ZmRR6; type: cell-based, maize B73; conditions: 6 h
Procedure: as §2, §1, §3, §4

Ckx1 = conditions: maize leaf discs incubated with BA, compared to untreated controls; cited from earlier work

c1ccc(CNc2ncnc3nc[nH]c23)cc1 [BA, benzyladenine]
Ckx1 transcript levels induced (Ckx1 transcripts [1]): ~15 fold | increase in Ckx1 transcripts (Ckx1 transcripts [2]): ~30 fold | Up/down regulation ([3]; 10 μM BA vs water): up | Ratio BA/Ctrl ([3]; 10 μM BA vs water, ppm ratio): 8.50 | Cldba (treated sample) expression ([3]; 10 μM BA, Lynx): 395 ppm | Up/down regulation ([4]; 10 μM BA vs water): up | Ratio BA/Ctrl ([4]; 10 μM BA vs water, ppm ratio): 8.75 | Cldba (treated sample) expression ([4]; 10 μM BA, Lynx): 70 ppm | Ckx1 induced (Ckx1): ~60 fold
